This test relates to L1210 leukemia ip in BDF1 mice, survival T/C. Description: NCI In Vivo Anticancer Drug Screen. Data for tumor model L1210 Leukemia (intraperitoneal) in B6D2F1 (BDF1) mice. As to conditions: endpoint: mean survival time, higher = longer survival. The procedure, abridged:
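Mice bearing the transplanted tumor received compound or vehicle. Survival of the treated group was divided by that of the vehicle-treated control group to give the ratio.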

Where [1] appears, read: dose: 50.0 mg/kg/injection, schedule: Q01DX001 (ip), vehicle: saline.
The mark [2] stands for this setting: dose: 100.0 mg/kg/injection, schedule: Q01DX001 (ip), vehicle: saline.
[3] abbreviates: dose: 200.0 mg/kg/injection, schedule: Q01DX001 (ip), vehicle: saline.
Setting [4] is: dose: 100.0 mg/kg/injection, schedule: Q01DX009 (ip), vehicle: Klucel (hydroxypropylcellulose) (HPC).
The mark [5] stands for this setting: dose: 200.0 mg/kg/injection, schedule: Q01DX009 (ip), vehicle: Klucel (hydroxypropylcellulose) (HPC).
[6] abbreviates: dose: 400.0 mg/kg/injection, schedule: Q01DX009 (ip), vehicle: Klucel (hydroxypropylcellulose) (HPC).
Where [7] appears, read: dose: 100.0 mg/kg/injection, schedule: Q01DX009 (ip), vehicle: saline.
Where [8] appears, read: dose: 200.0 mg/kg/injection, schedule: Q04DX003 (ip), vehicle: saline.
The mark [9] stands for this setting: dose: 100.0 mg/kg/injection, schedule: Q04DX003 (ip), vehicle: saline.
The mark [10] stands for this setting: dose: 400.0 mg/kg/injection, schedule: Q04DX003 (ip), vehicle: saline.

Where “and” joins values, the source holds several entries; their conditions need not be identical. Identical values can stand only once. Toxic doses and inconclusive results are not listed.

For `C(=C\C[n+]1ccccc1)/C[n+]1ccccc1`, the T/C under setting [1] is 106 % of control, the T/C under setting [2] was 112 % of control and the T/C under setting [3] is 106 % of control.

As to `COc1ccc(OC(=O)Nc2cc(Cl)ccc2C)cc1`, the T/C under setting [4] was 94 % of control, the T/C under setting [5] was 91 % of control and the T/C under setting [6] was 94 % of control.

`CC1(CNC(=O)C(=O)NCC2(C)CO2)CO1` (configuration not stated): the T/C by setting is: (dose: 15.0 mg/kg/injection, schedule: Q01DX009 (ip), vehicle: acetone) 98 % of control; (dose: 23.0 mg/kg/injection, schedule: Q01DX009 (ip), vehicle: acetone) 98 % of control; (dose: 25.0 mg/kg/injection, schedule: Q01DX Z (ip), vehicle: saline) 121 % of control; (dose: 40.0 mg/kg/injection, schedule: Q01DX Z (ip), vehicle: other) 120 % of control; under setting [1], 101 % of control; (dose: 50.0 mg/kg/injection, schedule: Q01DX009 (ip), vehicle: saline) 124 % of control. The T/C was 116 % of control (dose: 50.0 mg/kg/injection, schedule: Q01DX Z (ip), vehicle: saline); 124 % of control (dose: 50.0 mg/kg/injection, schedule: Q04DX003 (ip), vehicle: saline); 123 % of control (dose: 100.0 mg/kg/injection, schedule: Q01DX001 (ip), vehicle: acetone); 110 % of control and 113 % of control under setting [2]; 150 % of control under setting [7]; 96 % of control (dose: 100.0 mg/kg/injection, schedule: Q01DX Z (ip), vehicle: other). Besides, the T/C was 117 % of control (dose: 132.0 mg/kg/injection, schedule: Q04DX003 (ip), vehicle: saline); 157 % of control and 163 % of control (dose: 150.0 mg/kg/injection, schedule: Q01DX009 (ip), vehicle: saline); 121 % of control (dose: 150.0 mg/kg/injection, schedule: Q01DX Z (ip), vehicle: carboxymethylcellulose (CMC)); 119 % of control (dose: 200.0 mg/kg/injection, schedule: Q01DX001 (ip), vehicle: acetone); 120 % of control under setting [3]; 157 % of control and 166 % of control under setting [8]. Further, the T/C (dose: 225.0 mg/kg/injection, schedule: Q01DX009 (ip), vehicle: saline) was 180 % of control; the T/C (dose: 225.0 mg/kg/injection, schedule: Q01DX Z (ip), vehicle: carboxymethylcellulose (CMC)) is 96 % of control; the T/C (dose: 300.0 mg/kg/injection, schedule: Q01DX009 (ip), vehicle: saline) is 94 % of control; the T/C (dose: 300.0 mg/kg/injection, schedule: Q04DX003 (ip), vehicle: saline) was 158 % of control and 189 % of control; the T/C (dose: 338.0 mg/kg/injection, schedule: Q01DX Z (ip), vehicle: other) is 106 % of control; the T/C (dose: 400.0 mg/kg/injection, schedule: Q01DX001 (ip), vehicle: acetone) was 204 % of control.

`O=C(Nc1ccccc1)OCC(Cl)(Cl)Cl`: the T/C (dose: 100.0 mg/kg/injection, schedule: Q01DX001 (ip), vehicle: saline sonified) was 105 % of control; the T/C under setting [4] is 100 % of control; the T/C under setting [9] is 91 % of control; the T/C (dose: 200.0 mg/kg/injection, schedule: Q01DX001 (ip), vehicle: saline sonified) is 108 % of control; the T/C under setting [5] was 107 % of control; the T/C under setting [8] was 100 % of control. Also, the T/C is, setting by setting: (dose: 400.0 mg/kg/injection, schedule: Q01DX001 (ip), vehicle: saline sonified) 103 % of control; under setting [6], 100 % of control; under setting [10], 96 % of control.

In the case of `Nc1ccc(S(=O)(=O)O)cc1[N+](=O)[O-]`, the T/C reads like this: under setting [9], 93 % of control; under setting [8], 95 % of control; under setting [10], 96 % of control.

In the case of `CCN=C(c1ccc(NC(=O)c2ccc(C(=O)Nc3ccc(C(=NCC)N(CC)C(=O)CC(C)C)cc3)cc2)cc1)N(CC)C(=O)CC(C)C`, the T/C runs as follows: (dose: 3.12 mg/kg/injection, schedule: Q01DX015 (ip), vehicle: methylcellulose (MC)) 96 % of control; (dose: 6.25 mg/kg/injection, schedule: Q01DX015 (ip), vehicle: methylcellulose (MC)) 96 % of control; (dose: 12.5 mg/kg/injection, schedule: Q01DX015 (ip), vehicle: methylcellulose (MC)) 92 % of control; (dose: 25.0 mg/kg/injection, schedule: Q01DX015 (ip), vehicle: methylcellulose (MC)) 93 % of control; (dose: 50.0 mg/kg/injection, schedule: Q01DX015 (ip), vehicle: methylcellulose (MC)) 96 % of control; (dose: 100.0 mg/kg/injection, schedule: Q01DX015 (ip), vehicle: methylcellulose (MC)) 88 % of control. In addition, the T/C (dose: 200.0 mg/kg/injection, schedule: Q01DX015 (ip), vehicle: methylcellulose (MC)) was 94 % of control.

Take `CCOC(COc1ccccc1)c1ccccc1` (configuration not stated): the T/C by setting is: under setting [4], 106 % of control; under setting [5], 113 % of control; under setting [6], 106 % of control.

For `CS(=O)(=O)N(CC(=O)O)Cc1ccc(Cl)c(Cl)c1`, the T/C (dose: 100.0 mg/kg/injection, schedule: Q01DX009 (ip), vehicle: other) was 100 % of control; the T/C (dose: 100.0 mg/kg/injection, schedule: Q04DX003 (ip), vehicle: other) was 97 % of control; the T/C (dose: 200.0 mg/kg/injection, schedule: Q01DX009 (ip), vehicle: other) was 104 % of control; the T/C (dose: 200.0 mg/kg/injection, schedule: Q04DX003 (ip), vehicle: other) is 97 % of control; the T/C (dose: 400.0 mg/kg/injection, schedule: Q01DX009 (ip), vehicle: other) is 96 % of control; the T/C (dose: 400.0 mg/kg/injection, schedule: Q04DX003 (ip), vehicle: other) is 95 % of control.

For the compound `Cc1ccc(Nc2ccc([N+](=O)[O-])cc2)cc1`, the T/C is, setting by setting: (dose: 100.0 mg/kg/injection, schedule: Q01DX001 (ip), vehicle: gum acacia) 93 % of control; (dose: 200.0 mg/kg/injection, schedule: Q01DX001 (ip), vehicle: gum acacia) 100 % of control.

`O=C(COc1ccc(Cl)cc1)Nc1ccc(S(=O)(=O)O)c2ccccc12`: the T/C (dose: 100.0 mg/kg/injection, schedule: Q04DX002 (ip), vehicle: Klucel (hydroxypropylcellulose) (HPC)) was 98 % of control; the T/C (dose: 200.0 mg/kg/injection, schedule: Q04DX002 (ip), vehicle: Klucel (hydroxypropylcellulose) (HPC)) was 98 % of control; the T/C (dose: 400.0 mg/kg/injection, schedule: Q04DX002 (ip), vehicle: Klucel (hydroxypropylcellulose) (HPC)) is 98 % of control.

On to `COc1ccc(C(O)CCN2CCCCC2)cc1` (configuration not stated), for which the T/C (dose: 100.0 mg/kg/injection, schedule: Q01DX001 (ip), vehicle: saline with Tween-80) is 112 % of control.

`Clc1ccc(/C=N/N=C(N/N=C/c2ccc(Cl)cc2Cl)N/N=C/c2ccc(Cl)cc2Cl)c(Cl)c1`: the T/C (dose: 15.0 mg/kg/injection, schedule: Q01DX Z (ip), vehicle: carboxymethylcellulose (CMC)) is 88 % of control; the T/C (dose: 30.0 mg/kg/injection, schedule: Q01DX Z (ip), vehicle: carboxymethylcellulose (CMC)) was 93 % of control; the T/C (dose: 60.0 mg/kg/injection, schedule: Q01DX Z (ip), vehicle: carboxymethylcellulose (CMC)) is 95 % of control and 88 % of control; the T/C (dose: 120.0 mg/kg/injection, schedule: Q01DX Z (ip), vehicle: carboxymethylcellulose (CMC)) is 87 % of control and 88 % of control; the T/C (dose: 240.0 mg/kg/injection, schedule: Q01DX Z (ip), vehicle: carboxymethylcellulose (CMC)) is 93 % of control; the T/C (dose: 240.0 mg/kg/injection, schedule: Q01DX Z (oral), vehicle: carboxymethylcellulose (CMC)) is 102 % of control. The T/C by setting is: (dose: 480.0 mg/kg/injection, schedule: Q01DX Z (ip), vehicle: carboxymethylcellulose (CMC)) 87 % of control; (dose: 480.0 mg/kg/injection, schedule: Q01DX Z (oral), vehicle: carboxymethylcellulose (CMC)) 104 % of control; (dose: 960.0 mg/kg/injection, schedule: Q01DX Z (oral), vehicle: carboxymethylcellulose (CMC)) 105 % of control; (dose: 1920.0 mg/kg/injection, schedule: Q01DX Z (oral), vehicle: carboxymethylcellulose (CMC)) 102 % of control.

Regarding `COC(=O)C1CC2C(Cl)=C(Cl)C1(Cl)C2(Cl)Cl` (configuration not stated), the T/C is, setting by setting: under setting [7], 107 % of control; (dose: 200.0 mg/kg/injection, schedule: Q01DX009 (ip), vehicle: saline) 123 % of control; (dose: 400.0 mg/kg/injection, schedule: Q01DX009 (ip), vehicle: saline) 102 % of control.

The values above are taken from PubChem BioAssay AID248 (DTP/NCI, 2004).
